Assay results taken from patent publication US10441630B2, “Topical formulations and uses thereof” (OCULAR TECHNOLOGIES SARL, priority 2012, dated 2019).

Columns and labels:
Type in all cases: physicochemical
[1] = Weight percent of drug loaded into MNF (entrapment, RP-HPLC); conditions: HCO-60 4 wt %, Octoxynol-40 0.01 wt %
Experimental: To determine the entrapment efficiency of the formulation, all the prepared formulations were subjected to entrapment efficiency test. Briefly, formulations were vortex mixed for homogeneity and 1 mL was transferred to a fresh (1.5 mL) eppendorf tube. Each formulation was lyophilized to obtain a solid at the bottom of eppendorf tube. The obtained solid was suspended in 1 mL of organic solvent (diethyl ether) to generate reverse micelles and release the drug into the external organic solvent. The organic solvent was evaporated overnight in speed vacuum. The resultant reversed micelles were resuspended in 1 mL of 2-propanol (dilution factor was taken into account) and further diluted to determine the concentration of compound 1001 entrapped in each micellar preparation with HPLC. The entrapment efficiency of the formulation was calculated with the following formula (wherein MNF=Mixed Nanomicellar Formulation): […]
In vitro analysis of compound 1001 was performed by a reversed phase high performance liquid chromatography (RP-HPLC) method with a Shimadzu HPLC pump (Shimadzu, Shimadzu Scientific instruments, Columbia, Md.), Alcott autosampler (model 718 AL), Shimadzu UV/Visible detector (Shimadzu, SPD-20A/20AV, USA), ODS column (5 μm, 150×4.6 mm) thermostated at 40°±1 C and Hewlett Packard HPLC integrator (Hewlett Packard, Palo Alto, Calif.). The mobile phase was comprised of methanol (MeOH), water and trifluoroacetic acid (TFA) (70:30:0.05% v/v) which was set at a flow rate of 0.5 mL/min. Detection wavelength was set at 272 nm. The sample tray temperature was maintained at 4° C. Calibration curve (0.5 to 5 μg/mL) for compound 1001 was prepared by making appropriate dilutions from the stock solution in 2-propanol. An injection volume of 10 μl was injected into the HPLC column for analysis. All the standards and samples prepared were stored at 4° C. before and during the analysis.
(§1) Mixed nanomicellar formulation encapsulating compound 1001 was prepared by solvent evaporation method in two steps: 1) Preparation of basic formulation and 2) rehydration. In step one, compound 1001, HCO-60 and octoxynol-40 were dissolved separately in 0.3 mL of ethyl acetate. These three solutions were mixed together in 15-mL centrifuge tube. The resultant mixture was vortexed to obtain a homogenous solution. Ethyl acetate solvent was removed with speed vacuum to obtain a solid thin film. The residue was kept overnight under high vacuum at room temperature to remove residual organic solvent. In step two, the resultant thin film was hydrated with 1 mL of double distilled deionized water by vortexing the solution. The rehydrated formulation was suspended in 2× phosphate buffer solution, (pH 6.5). It was filtered through 0.2 μm nylon filter membrane to remove the unentrapped drug aggregates and other foreign particulates. The entrapment of compound 1001 was determined by RP-HPLC following disruption of the micelles and solubilization of 1001 in the diluent (2-propanol) as described below
(§2) Weight percent of drug loaded into MNF was determined following the method for entrapment efficiency. Size and polydispersity index of the formulations was determined with Malvern zetasizer as described above. The formulations appear clear and have small size and narrow size distribution.

[2] = Appearance of compound 1001 MNF, solvent evaporation method; conditions: HCO-60 4 wt %, Octoxynol-40 0.01 wt %
Experimental: as §1, §2

[3] = Physical appearance, melt method, HCO-40 and compound 1001, at 25° C. and 4° C.; conditions: 1001 4 wt %; for Allow to reach room temperature (25° C.): brought back from 4° C.; for Mixture physical appearance at room temperature (4° C.): placed at 4° C.; for Resuspend in water: water at 40° C.
Experimental: The preparation of MNF encapsulating compound 1001 (neat oil) can be divided into two steps. As an example for the development of 3.0 wt % HCO-40 or HCO-60 MNF encapsulating 0.4% compound 1001 is described below. […] To this melt polymer compound 1001 (˜20 mg), thermostated at 40° C., was added and mixed for homogenous distribution. […] (in refrigerator).
This aqueous solution was allowed to reach room temperature, under natural conditions. The pH of the solution was adjusted to 5.5 and the volume was made up with 2× phosphate buffer saline (pH 5.5) containing octoxynol-40 (0.01 wt %) and PVP-K-90 (1.2 wt %). The formulation was filtered through 0.2 μm nylon filter to remove any foreign material and obtain a clear homogenous aqueous RX-1001 formulation.
The results obtained for physical appearance of the mixture, different phases, at different temperatures and appearance of final formulation are summarized in Tables 3a-3c.

[4] = 1001 initially added 0.035 wt %
[5] = 1001 initially added 0.070 wt %
[6] = 1001 initially added 0.095 wt %
[7] = 1001 initially added 0.120 wt %
[8] = 1001 initially added 0.250 wt %
[9] = 1001 initially added 0.300 wt %
[10] = 1001 initially added 0.400 wt %

- Final formulation ([3]; HCO-40 0.5 wt %): Emulsion
- Mixture physical appearance at room temperature (25° C.) ([3]; HCO-40 0.5 wt %): Viscous yellow
- Allow to reach room temperature (25° C.) ([3]; HCO-40 0.5 wt %): Viscous liquid
- Mixture physical appearance at room temperature (4° C.) ([3]; HCO-40 0.5 wt %): Viscous liquid
- Resuspend in water ([3]; HCO-40 0.5 wt %): Emulsion
- Final formulation ([3]; HCO-40 0.75 wt %): Emulsion
- Mixture physical appearance at room temperature (25° C.) ([3]; HCO-40 0.75 wt %): Viscous yellow
- Allow to reach room temperature (25° C.) ([3]; HCO-40 0.75 wt %): Viscous liquid
- Mixture physical appearance at room temperature (4° C.) ([3]; HCO-40 0.75 wt %): Viscous liquid
- Resuspend in water ([3]; HCO-40 0.75 wt %): Emulsion
- Final formulation ([3]; HCO-40 1.0 wt %): Emulsion
- Mixture physical appearance at room temperature (25° C.) ([3]; HCO-40 1.0 wt %): Viscous yellow
- Allow to reach room temperature (25° C.) ([3]; HCO-40 1.0 wt %): Viscous liquid
- Mixture physical appearance at room temperature (4° C.) ([3]; HCO-40 1.0 wt %): Viscous liquid
- Resuspend in water ([3]; HCO-40 1.0 wt %): Emulsion
- Final formulation ([3]; HCO-40 1.25 wt %): Emulsion
- Mixture physical appearance at room temperature (25° C.) ([3]; HCO-40 1.25 wt %): Viscous yellow
- Allow to reach room temperature (25° C.) ([3]; HCO-40 1.25 wt %): Viscous liquid
- Mixture physical appearance at room temperature (4° C.) ([3]; HCO-40 1.25 wt %): Viscous liquid
- Resuspend in water ([3]; HCO-40 1.25 wt %): Emulsion
- Final formulation ([3]; HCO-40 1.5 wt %): Emulsion
- Mixture physical appearance at room temperature (25° C.) ([3]; HCO-40 1.5 wt %): Viscous yellow
- Allow to reach room temperature (25° C.) ([3]; HCO-40 1.5 wt %): Viscous liquid
- Mixture physical appearance at room temperature (4° C.) ([3]; HCO-40 1.5 wt %): Yellow waxy
- Resuspend in water ([3]; HCO-40 1.5 wt %): Emulsion
- Final formulation ([3]; HCO-40 1.75 wt %): Emulsion
- Mixture physical appearance at room temperature (25° C.) ([3]; HCO-40 1.75 wt %): Viscous yellow
- Allow to reach room temperature (25° C.) ([3]; HCO-40 1.75 wt %): Viscous liquid
- Mixture physical appearance at room temperature (4° C.) ([3]; HCO-40 1.75 wt %): Yellow waxy
- Resuspend in water ([3]; HCO-40 1.75 wt %): Emulsion
- Final formulation ([3]; HCO-40 2.0 wt %): Emulsion
- Mixture physical appearance at room temperature (25° C.) ([3]; HCO-40 2.0 wt %): Viscous yellow
- Allow to reach room temperature (25° C.) ([3]; HCO-40 2.0 wt %): Viscous liquid
- Mixture physical appearance at room temperature (4° C.) ([3]; HCO-40 2.0 wt %): Yellow waxy
- Resuspend in water ([3]; HCO-40 2.0 wt %): Emulsion
- Final formulation ([3]; HCO-40 2.25 wt %): Emulsion
- Mixture physical appearance at room temperature (25° C.) ([3]; HCO-40 2.25 wt %): Viscous yellow
- Allow to reach room temperature (25° C.) ([3]; HCO-40 2.25 wt %): Viscous liquid
- Mixture physical appearance at room temperature (4° C.) ([3]; HCO-40 2.25 wt %): Yellow waxy
- Resuspend in water ([3]; HCO-40 2.25 wt %): Emulsion
- Final formulation ([3]; HCO-40 2.5 wt %): Yellow color
- Mixture physical appearance at room temperature (25° C.) ([3]; HCO-40 2.5 wt %): Viscous yellow
- Allow to reach room temperature (25° C.) ([3]; HCO-40 2.5 wt %): Viscous liquid
- Mixture physical appearance at room temperature (4° C.) ([3]; HCO-40 2.5 wt %): Yellow waxy
- Resuspend in water ([3]; HCO-40 2.5 wt %): Yellow
- Final formulation ([3]; HCO-40 2.75 wt %): Very pale yellow
- Mixture physical appearance at room temperature (25° C.) ([3]; HCO-40 2.75 wt %): Viscous yellow
- Allow to reach room temperature (25° C.) ([3]; HCO-40 2.75 wt %): Viscous liquid
- Mixture physical appearance at room temperature (4° C.) ([3]; HCO-40 2.75 wt %): Pale yellow waxy
- Resuspend in water ([3]; HCO-40 2.75 wt %): Pale yellow
- Final formulation ([3]; HCO-40 3.0 wt %): Clear solution
- Mixture physical appearance at room temperature (25° C.) ([3]; HCO-40 3.0 wt %): Viscous yellow
- Allow to reach room temperature (25° C.) ([3]; HCO-40 3.0 wt %): Viscous liquid
- Mixture physical appearance at room temperature (4° C.) ([3]; HCO-40 3.0 wt %): Pale yellow solid
- Resuspend in water ([3]; HCO-40 3.0 wt %): Clear
- Final formulation ([3]; HCO-40 4.0 wt %): Clear solution
- Mixture physical appearance at room temperature (25° C.) ([3]; HCO-40 4.0 wt %): Viscous yellow
- Allow to reach room temperature (25° C.) ([3]; HCO-40 4.0 wt %): Pale yellow
- Mixture physical appearance at room temperature (4° C.) ([3]; HCO-40 4.0 wt %): Pale yellow waxy
- Resuspend in water ([3]; HCO-40 4.0 wt %): Clear
Structure (SMILES): C#CC[C@@H](O)/C=C/C=C/C#C[C@@H](O)CCCC(=O)OC(C)C [compound 1001]
- 1001 (loaded in mixed micelles) wt % [1, 4]: 0.033 wt %
- 1001 (loaded in mixed micelles) wt % [1, 5]: 0.065 wt %
- 1001 (loaded in mixed micelles) wt % [1, 6]: 0.084 wt %
- 1001 (loaded in mixed micelles) wt % [1, 7]: 0.11 wt %
- 1001 (loaded in mixed micelles) wt % [1, 8]: 0.26 wt %
- 1001 (loaded in mixed micelles) wt % [1, 9]: 0.32 wt %
- 1001 (loaded in mixed micelles) wt % [1, 10]: 0.45 wt %
- Result [2, 4]: Clear/transparent
- Result [2, 5]: Clear/transparent
- Result [2, 6]: Clear/transparent
- Result [2, 7]: Pale yellow color
- Result [2, 8]: Yellow color
- Result [2, 9]: Yellow color
- Result [2, 10]: Yellow color
